Assay results as given in patent publication US5935973A, “Heterocyclcarboxamide derivatives and their use as therapeutic agents” (Knoll Aktiengesellschaft, priority 1995, dated 1999).

Assays:
D2 dopamine receptors = target: T1, D2 dopamine receptors (Rattus norvegicus, UniProt P61169); test: inhibition of tritiated (S)-sulpiride binding to D2 dopamine receptors in rat striatal tissue; settings: rat striatum; for Ki: tritiated (S)-sulpiride 1 nM, 4° C., 40 min; for inhibition at 1 µM: at 10^-6 M, tritiated (S)-sulpiride, read-out: % displacement of radio ligand, D2
T1 construct: Striatal tissue from the brains of male Charles River CD rats; from tissue; host or cells: rat striatum membranes
Protocol: Striatal tissue from the brains of male Charles River CD rats weighing between 140-250 g were homogenised in ice-cold 50 mM Tris-HCl buffer (pH 7.7 when measured at 25° C.) and centrifuged at 40,000 g for 10 minutes. The pellet was resuspended in Tris salts buffer (50 mM Tris-HCl buffer containing 120 mM NaCl, 5 mM KCl, 2 mM CaCl2 and 1 mM MgCl2 with the addition of 6 mM ascorbic acid; pH 7.7 when measured at 25° C.), and again centrifuged at 40,000 g for 10 minutes. The final pellet was stored at -80° C. Before each test the pellet was resuspended in Tris salts buffer (equivalent to 2 mg wet weight of tissue/ml). Aliquots (720 μl; equivalent to 1.44 mg wet weight of tissue/tube) of this suspension were then added to tubes containing the ligand (40 μl; 1 nM) and Tris salts buffer (40 μl; total binding) or spiroperidol (40 μl; 10 nM; non-specific binding) or test compound (40 μl; at a single concentration of 10^-6 M or at 6 concentrations ranging from 10^-11 -10^-4 M). The ligand was tritiated (S)-sulpiride and the mixture was incubated at 4° C. for 40 minutes before the incubation was terminated by rapid filtration.
The filters were washed with ice-cold Tris-HCl buffer and dried. The filters were punched out in to vials, scintillation fluid added and were left for about 20 hours before being counted by scintillation spectrophotometry. The percentage displacement of specific binding of the tritiated ligand was calculated for the single concentration (10^-6 M) of test compound. Displacement curves were then produced over a range of concentrations for those compounds which displaced ≥50% of specific binding of the tritiated ligand at 10^-6 M. The concentration which gave a 50% inhibition of specific binding (IC50) was obtained from the curve. The inhibition coefficient Ki was then calculated using the formula [formula] in [ligand] is the concentration of the tritiated ligand used and KD is the 2 equilibrium dissociation constant for the ligand.

5-HT1A receptors = target: T2, 5-HT1A receptors (Rattus norvegicus, UniProt P19327); test: inhibition of [3H]8-OH-DPAT binding to 5-HT1A receptors in rat hippocampal tissue; settings: rat hippocampus; for Ki: [3H]8-OH-DPAT 2 nM, 25° C., 30 min; for inhibition at 1 µM: at 10^-6 M, [3H]8-OH-DPAT, read-out: % displacement of radio ligand, 5-HT1A
T2 construct: Hippocampal tissue from the brains of male Sprague-Dawley rats; from tissue; host or cells: rat hippocampus membranes
T2 sequence (P19327 1-422): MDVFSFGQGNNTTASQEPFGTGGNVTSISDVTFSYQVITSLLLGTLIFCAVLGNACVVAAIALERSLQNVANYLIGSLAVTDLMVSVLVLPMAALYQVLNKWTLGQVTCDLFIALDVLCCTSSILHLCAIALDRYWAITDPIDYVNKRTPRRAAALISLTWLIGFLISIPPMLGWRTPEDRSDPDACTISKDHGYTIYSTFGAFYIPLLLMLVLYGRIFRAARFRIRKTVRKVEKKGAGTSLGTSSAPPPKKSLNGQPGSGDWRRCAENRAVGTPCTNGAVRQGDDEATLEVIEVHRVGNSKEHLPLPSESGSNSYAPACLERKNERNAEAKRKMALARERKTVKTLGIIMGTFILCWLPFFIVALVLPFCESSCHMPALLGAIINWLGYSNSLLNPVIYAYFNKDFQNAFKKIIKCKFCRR
Protocol: Hippocampal tissue from the brains of male Sprague-Dawley rats (Charles River; weight range 150-250 g) was homogenised in ice-cold 50 mM Tris-HCl buffer (pH 7.7 when measured at 25° C., 1:40 w/v) and centrifuged at 30,000 g at 4° C. for 10 minutes. The pellet was rehomogenised in the same buffer, incubated at 37° C. for 10 minutes and centrifuged at 30,000 g at 4° C. for 10 minutes. The final pellet was resuspended in 50 mM Tris-HCl buffer (pH 7.7) containing 4 mM CaCl2, 0.1% L-ascorbic acid and 10 μM pargyline hydrochloride (equivalent to 6.25 mg wet weight of tissue/ml) and used immediately in the binding assay. Aliquots (400 μl; equivalent to 2.5 mg wet weight of tissue/tube) of this suspension were added to tubes containing the ligand (50 μl; 2 nM) and distilled water (50 μl total binding) or 5-HT (50 μl; 10 μM; non-specific binding) or test compound (50 μl; at a single concentration of 10^-6 M or at 10 concentrations ranging from 10^-11 -10^-3 M). The ligand was [^3 H]8-hydroxy-2-(dipropylamino)tetralin ([^3 H]8-OH-DPAT) and the mixture was incubated at 25° C. for 30 minutes before the incubation was terminated by rapid filtration.
(§1) The filters were washed with ice-cold Tris-HCl buffer and dried. The filters were punched out into vials, scintillation fluid added and radioactivity determined by liquid scintillation counting. The percentage displacement of specific binding of the tritiated ligand was calculated for the single concentration (10^-6 M) of test compound. Displacement curves were then produced for those compounds which displaced ≥50% of specific binding of the tritiated ligand at 10^-6 M using a range of concentrations of the compound. The concentration which gave 50% inhibition of specific binding (IC50) was obtained from the curve. The inhibition coefficient Ki was then calculated using the formula [formula] in which [ligand] is the concentration of the tritiated ligand used and KD is the equilibrium dissociation constant for the ligand.

α1-adrenoceptors = test: inhibition of [7-methoxy-3H]prazosin binding to α1-adrenoceptors in rat whole cortical tissue; settings: rat whole cortex, 30 min; for Ki: [7-methoxy-3H]prazosin 0.1 nM, 30° C.; for % displacement of radio ligand, α1: at 10^-6 M, [7-methoxy-3H]prazosin, 1 µM
Protocol: Whole cortical tissue from the brains of male Charles River CD rats weighing between 150-250 g were homogenised in ice-cold 50 mM Tris-HCl, pH 7.6 (at 25° C.; 1:40 w/v) and centrifuged at 1000 g at 4° C. for 10 minutes. The supernatant was centrifuged at 30,000 g at 4° C. for 10 minutes. The pellet was rehomogenised in 50 mM Tris-HCl, pH 7.6 (1:40 w/v) and centrifuged at 30,000 g at 4° C. for 10 minutes. The final pellet was resuspended in 50 mM Tris-HCl, pH 7.6 (equivalent to 12.5 mg wet weight of tissue/ml) and used immediately in the binding assay. Aliquots (400 μl; equivalent to 5 mg wet weight of tissue/tube) of this suspension were added to tubes containing the ligand (50 μl; 0.1 nM) and distilled water (50 μl; total binding) or phentolamine (50 μl; 5 μM; non-specific binding) or test compound (50 μl; at a single concentration of 10^-6 M or at 10 concentrations ranging from 10^-11 -10^-3 M). The ligand was [7-methoxy-^3 H]prazosin and the mixture was incubated at 30° C. for 30 minutes before the incubation was terminated by rapid filtration.
as §1

T1 sequence (P61169 whole entry): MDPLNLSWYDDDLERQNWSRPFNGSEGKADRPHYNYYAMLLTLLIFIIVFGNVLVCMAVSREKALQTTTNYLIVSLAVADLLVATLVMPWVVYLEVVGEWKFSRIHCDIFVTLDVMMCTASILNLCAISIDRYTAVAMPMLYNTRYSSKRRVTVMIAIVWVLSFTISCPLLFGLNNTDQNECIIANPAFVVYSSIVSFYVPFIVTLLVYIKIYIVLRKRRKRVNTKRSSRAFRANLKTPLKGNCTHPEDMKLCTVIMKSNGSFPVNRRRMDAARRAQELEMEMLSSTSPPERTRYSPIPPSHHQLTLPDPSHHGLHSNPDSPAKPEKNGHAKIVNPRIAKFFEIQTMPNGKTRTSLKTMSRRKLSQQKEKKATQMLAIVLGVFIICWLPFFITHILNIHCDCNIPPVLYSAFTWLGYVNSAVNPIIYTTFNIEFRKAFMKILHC

Compound	Ki (D2 dopamine receptors) [nM]	Ki (5-HT1A receptors) [nM]	Ki (α1-adrenoceptors) [nM]	inhibition at 1 µM (D2 dopamine receptors) [%]	inhibition at 1 µM (5-HT1A receptors) [%]	% displacement of radio ligand, α1 (α1-adrenoceptors) [%]
Cc1cccc(C(=O)NCC2CCN(C[C@H]3COc4ccc(Cl)cc4O3)CC2)n1 [Example 25, (S)-N-{[1-(7-chloro-1,4-benzodioxan-2-ylmethyl)-4-piperidyl]methyl}-6-methylpyridine-2-carboxamide]	33	47	233	–	–	–
O=C(c1ccccn1)N1CCC(CNC[C@H]2COc3ccc(Cl)cc3O2)CC1 [Example 29, 4-[N-(7-chloro-1,4-benzodioxan-2-ylmethyl)aminomethyl]-1-(2-pyridylcarbonyl)piperidine]	–	–	–	–	95	85
CSc1ncccc1C(=O)NCC1CCN(C[C@H]2COc3ccc(Br)cc3O2)CC1 [Example 38, (S)-N-{[1-(7-bromo-1,4-benzodioxan-2-ylmethyl)-4-piperidyl]methyl}-2-(methylthio)pyridine-3-carboxamide]	–	–	–	99	88	51
Nc1ncccc1C(=O)NCC1CCN(C[C@H]2COc3cccc(OS(=O)(=O)C(F)(F)F)c3O2)CC1 [Example 28, (S)-2-amino-N-{[1-(8-trifluoromethanesulphonyloxy-1,4-benzodioxan-2-ylmethyl)-4-piperidyl]methyl}pyridine-3-carboxamide]	–	–	–	101	96	98
O=C(NCC1CCN(C[C@H]2COc3cccc(Cl)c3O2)CC1)c1cccnc1 [Example 24, (S)-N-{[1-(8-chloro-1,4-benzodioxan-2-ylmethyl)-4-piperidyl]methyl}pyridine-3-carboxamide]	16	34	9	–	–	–
Cc1ccc2c(c1)O[C@@H](CN1CCC(CNC(=O)c3cccnc3)CC1)CO2 [Example 30, (S)-N-{[1-(7-methyl-1,4-benzodioxan-2-ylmethyl)-4-piperidyl]methyl}pyridine-3-carboxamide]	–	–	–	85	78	61
Cc1ccc2c(c1)O[C@@H](CN1CCC(CNC(=O)c3cccnc3C)CC1)CO2 [Example 31, (S)-2-methyl-N-{[1-(7-methyl-1,4-benzodioxan-2-ylmethyl)-4-piperidyl]-methyl}pyridine-3-carboxamide]	–	–	–	68	63	41
Cc1ccc2c(c1)O[C@@H](CN1CCC(CNC(=O)c3ccc(-n4cccc4)nc3)CC1)CO2 [Example 32, (S)-N-{[1-(7-methyl-1,4-benzodioxan-2-ylmethyl)-4-piperidyl]methyl}-6-(1-pyrrolyl)pyridine-3-carboxamide]	–	–	–	80	92	71
Nc1ncccc1C(=O)NCC1CCN(C[C@H]2COc3ccc(F)c(F)c3O2)CC1 [Example 27, (S)-2-amino-N-{[1-(7,8-difluoro-1,4-benzodioxan-2-ylmethyl)4-piperidyl]methyl}pyridine-3-carboxamide]	–	–	–	99.9	90	68

Second part, the compound after the results:

Ki (D2 dopamine receptors) [nM]	Ki (5-HT1A receptors) [nM]	Ki (α1-adrenoceptors) [nM]	inhibition at 1 µM (D2 dopamine receptors) [%]	inhibition at 1 µM (5-HT1A receptors) [%]	% displacement of radio ligand, α1 (α1-adrenoceptors) [%]	Compound
–	–	–	87	85	43	O=C(NCC1CCN(C[C@H]2COc3ccc(Br)cc3O2)CC1)c1cncc(Br)c1 [Example 39, (S)-5-bromo-N-{[1-(7-bromo-1,4-benzodioxan-2-ylmethyl)-4-piperidyl]methyl}pyridine-3-carboxamide]
–	–	–	68	76	59	O=C(NCC1CCN(C[C@H]2COc3ccc(F)cc3O2)CC1)c1cccnc1 [Example 43, (S)-N-{[1-(7-fluoro-1,4-benzodioxan-2-ylmethyl)-4-piperidyl]methyl}pyridine-3-carboxamide]
–	–	–	101	97	98	O=C(NCC1CCN(C[C@H]2COc3cccc(Cl)c3O2)CC1)c1ccc(-n2cccc2)nc1 [Example 50, (S)-N-{[1-(8-chloro-1,4-benzodioxan-2-ylmethyl)-4-piperidyl)methyl}-6-(1-pyrrolyl)pyridine-3-carboxamide]
–	–	–	100	75	94	O=C(NCC1CCN(C[C@H]2COc3cccc(C(F)(F)F)c3O2)CC1)c1ccc(-n2cccc2)nc1 [Example 47, (S)-6-(1-pyrrolyl)-N-{[1-(8-trifluoromethyl-1,4-benzodioxan-2-ylmethyl)-4-piperidyl]methyl}pyridine-3-carboxamide]
–	–	–	91	87	60	O=C(NCC1CCN(C[C@H]2COc3ccc(Cl)cc3O2)CC1)c1ccc(-n2cccc2)nc1 [Example 40, (S)-N-{[1-(7-chloro-1,4-benzodioxan-2-ylmethyl)-4-piperidyl]methyl}-6-(1-pyrrolyl)pyridine-3-carboxamide]
–	–	–	70	68	29	CSc1ncccc1C(=O)NCC1CCN(C[C@H]2COc3ccc(Cl)cc3O2)CC1 [Example 41, (S)-N-{[1-(7-chloro-1,4-benzodioxan-2-ylmethyl)-4-piperidyl]methyl}-2-(methylthio)pyridine-3-carboxamide]
–	–	–	101	95	97	O=C(NCC1CCN(C[C@H]2COc3cccc(Cl)c3O2)CC1)c1cncc(Br)c1 [Example 52, (S)-5-bromo-N-{[1-(8-chloro-1,4-benzodioxan-2-ylmethyl)-4-piperidyl]methyl}pyridine-3-carboxamide]
